Test results taken from patent US20210045385A1, “PYRIDAZINONE-SUBSTITUTED KETOXIMES AS HERBICIDES” (FMC Corporation, priority 2018, published 2021).

Tests used:
Assay type in all cases: in vivo
[1] = tested on: blackgrass (Alopecurus myosuroides); assay: Test A postemergence, visual plant response rating; conditions: for Blackgrass plant response rating (0 to 100 scale): 500 g ai/ha, postemergence, 0 is no effect, 100 is complete control; for Blackgrass plant response rating: Postemergence, 125 g ai/ha, 0 to 100 scale (0 no effect, 100 complete control)
How it was run: (§1)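 Formulated in a non-phytotoxic solvent mixture including surfactant, each test chemical was sprayed onto the soil surface after sowing, or onto seedlings 2 to 10 cm high. Roughly 10 days later, plants were compared with untreated controls and rated for injury from 0 (no effect) to 100 (complete control).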

[2] = tested on: galium (catchweed bedstraw, Galium aparine); assay: Test A postemergence, visual plant response rating; conditions: for Galium plant response rating (0 to 100 scale): 500 g ai/ha, postemergence, 0 is no effect, 100 is complete control; for Galium plant response rating: Postemergence, 125 g ai/ha, 0 to 100 scale (0 no effect, 100 complete control)
How it was run: as §1

[3] = tested on: ragweed (common ragweed, Ambrosia elatior); assay: Test A postemergence, visual plant response rating; conditions: for Ragweed plant response rating (0 to 100 scale): 500 g ai/ha, postemergence, 0 is no effect, 100 is complete control; for Ragweed plant response rating: Postemergence, 125 g ai/ha, 0 to 100 scale (0 no effect, 100 complete control)
How it was run: as §1

[4] = tested on: kochia (Kochia scoparia); assay: Test A postemergence, visual plant response rating; conditions: for Kochia plant response rating (0 to 100 scale): 500 g ai/ha, postemergence, 0 is no effect, 100 is complete control; for Kochia plant response rating: Postemergence, 125 g ai/ha, 0 to 100 scale (0 no effect, 100 complete control)
How it was run: as §1

[5] = tested on: barnyardgrass (Echinochloa crus-galli); assay: Test A postemergence, visual plant response rating; conditions: for Barnyardgrass plant response rating (0 to 100 scale): 500 g ai/ha, postemergence, 0 is no effect, 100 is complete control; for Barnyardgrass plant response rating: Postemergence, 125 g ai/ha, 0 to 100 scale (0 no effect, 100 complete control)
How it was run: as §1

[6] = tested on: wheat (Triticum aestivum); assay: Test A postemergence, visual plant response rating; conditions: for Wheat plant response rating (0 to 100 scale): 500 g ai/ha, postemergence, 0 is no effect, 100 is complete control; for Wheat plant response rating: Postemergence, 125 g ai/ha, 0 to 100 scale (0 no effect, 100 complete control)
How it was run: as §1

[7] = tested on: Italian ryegrass (Lolium multiflorum); assay: Test A postemergence, visual plant response rating; conditions: for Ryegrass, Italian plant response rating (0 to 100 scale): 500 g ai/ha, postemergence, 0 is no effect, 100 is complete control; for Ryegrass, Italian plant response rating: Postemergence, 125 g ai/ha, 0 to 100 scale (0 no effect, 100 complete control)
How it was run: as §1

[8] = tested on: pigweed (Amaranthus retroflexus); assay: Test A postemergence, visual plant response rating; conditions: for Pigweed plant response rating (0 to 100 scale): 500 g ai/ha, postemergence, 0 is no effect, 100 is complete control; for Pigweed plant response rating: Postemergence, 125 g ai/ha, 0 to 100 scale (0 no effect, 100 complete control)
How it was run: as §1

[9] = tested on: corn (Zea mays); assay: Test A postemergence, visual plant response rating; conditions: for Corn plant response rating (0 to 100 scale): 500 g ai/ha, postemergence, 0 is no effect, 100 is complete control; for Corn plant response rating: Postemergence, 125 g ai/ha, 0 to 100 scale (0 no effect, 100 complete control)
How it was run: as §1

[10] = tested on: foxtail, giant (giant foxtail, Setaria faberii); assay: Test A postemergence, visual plant response rating; conditions: for Foxtail, Giant plant response rating (0 to 100 scale): 500 g ai/ha, postemergence, 0 is no effect, 100 is complete control; for Foxtail, Giant plant response rating: Postemergence, 125 g ai/ha, 0 to 100 scale (0 no effect, 100 complete control)
How it was run: as §1

[11] = tested on: ragweed (common ragweed, Ambrosia elatior); assay: Test A preemergence, visual plant response rating; conditions: for Ragweed plant response rating: 125 g ai/ha, preemergence, 0 to 100 scale, 0 no effect, 100 complete control; for Ragweed plant response rating (0 to 100 scale): 500 g ai/ha Preemergence, approx. 10 days
How it was run: as §1

[12] = tested on: kochia (Kochia scoparia); assay: Test A preemergence, visual plant response rating; conditions: for Kochia plant response rating: 125 g ai/ha, preemergence, 0 to 100 scale, 0 no effect, 100 complete control; for Kochia plant response rating (0 to 100 scale): 500 g ai/ha Preemergence, approx. 10 days
How it was run: as §1

[13] = tested on: barnyardgrass (Echinochloa crus-galli); assay: Test A preemergence, visual plant response rating; conditions: for Barnyardgrass plant response rating: 125 g ai/ha, preemergence, 0 to 100 scale, 0 no effect, 100 complete control; for Barnyardgrass plant response rating (0 to 100 scale): 500 g ai/ha Preemergence, approx. 10 days
How it was run: as §1

[14] = tested on: Italian ryegrass (Lolium multiflorum); assay: Test A preemergence, visual plant response rating; conditions: for Ryegrass, Italian plant response rating: 125 g ai/ha, preemergence, 0 to 100 scale, 0 no effect, 100 complete control; for Ryegrass, Italian plant response rating (0 to 100 scale): 500 g ai/ha Preemergence, approx. 10 days
How it was run: as §1

[15] = tested on: pigweed (Amaranthus retroflexus); assay: Test A preemergence, visual plant response rating; conditions: for Pigweed plant response rating: 125 g ai/ha, preemergence, 0 to 100 scale, 0 no effect, 100 complete control; for Pigweed plant response rating (0 to 100 scale): 500 g ai/ha Preemergence, approx. 10 days
How it was run: as §1

[16] = tested on: foxtail, giant (giant foxtail, Setaria faberii); assay: Test A preemergence, visual plant response rating; conditions: for Foxtail, Giant plant response rating: 125 g ai/ha, preemergence, 0 to 100 scale, 0 no effect, 100 complete control; for Foxtail, Giant plant response rating (0 to 100 scale): 500 g ai/ha Preemergence, approx. 10 days
How it was run: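 Preemergence: seeds in loam/sand blend given directed soil spray of compound in non-phytotoxic solvent with surfactant. Postemergence: plants 2–10 cm, one- to two-leaf stage, sprayed with same formulation. Visual injury rated vs untreated controls after ~10 days in greenhouse, 0 (no effect) to 100 (complete control).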

[17] = tested on: rice (Oryza sativa); assay: Test B flooded paddy test, visual plant response rating; conditions: 250 g ai/ha, Flood, applied to paddy water, 2-leaf stage, evaluated after 13 to 15 days
How it was run: (§2)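 Seedlings at 2 leaves; compound into paddy water (3 cm flood, maintained); 13–15 d greenhouse; visual score relative to controls.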

[18] = tested on: sedge, umbrella (small-flower umbrella sedge, Cyperus difformis); assay: as above; conditions: 250 g ai/ha, Flood, applied to paddy water, 2-leaf stage, evaluated after 13 to 15 days
How it was run: as §2

[19] = tested on: barnyardgrass (Echinochloa crus-galli); assay: as above; conditions: 250 g ai/ha, Flood, applied to paddy water, 2-leaf stage, evaluated after 13 to 15 days
How it was run: as §2

[20] = tested on: ducksalad (Heteranhera limosa); assay: as above; conditions: 250 g ai/ha, Flood, applied to paddy water, 2-leaf stage, evaluated after 13 to 15 days
How it was run: as §2

CON=C(c1cc(Cl)ccc1C(F)(F)F)c1c(O)c(C)nn(C)c1=O [Compound 97]
Blackgrass plant response rating (0 to 100 scale) [1]: 90 | Blackgrass plant response rating [1]: 70 | Galium plant response rating (0 to 100 scale) [2]: 90 | Galium plant response rating [2]: 70 | Ragweed plant response rating (0 to 100 scale) [3]: 80 | Ragweed plant response rating [3]: 70 | Kochia plant response rating (0 to 100 scale) [4]: 70 | Kochia plant response rating [4]: 60 | Barnyardgrass plant response rating (0 to 100 scale) [5]: 60 | Barnyardgrass plant response rating [5]: 40 | Wheat plant response rating (0 to 100 scale) [6]: 50 | Wheat plant response rating [6]: 30 | Ryegrass, Italian plant response rating (0 to 100 scale) [7]: 100 | Ryegrass, Italian plant response rating [7]: 90 | Pigweed plant response rating (0 to 100 scale) [8]: 80 | Pigweed plant response rating [8]: 80 | Corn plant response rating (0 to 100 scale) [9]: 40 | Corn plant response rating [9]: 0 | Foxtail, Giant plant response rating (0 to 100 scale) [10]: 80 | Foxtail, Giant plant response rating [10]: 70 | Ragweed plant response rating [11]: 60 | Ragweed plant response rating (0 to 100 scale) [11]: 100 | Kochia plant response rating [12]: 20 | Kochia plant response rating (0 to 100 scale) [12]: 50 | Barnyardgrass plant response rating [13]: 70 | Barnyardgrass plant response rating (0 to 100 scale) [13]: 90 | Ryegrass, Italian plant response rating [14]: 80 | Ryegrass, Italian plant response rating (0 to 100 scale) [14]: 100 | Pigweed plant response rating [15]: 40 | Pigweed plant response rating (0 to 100 scale) [15]: 90 | Foxtail, Giant plant response rating [16]: 80 | Foxtail, Giant plant response rating (0 to 100 scale) [16]: 90 | Plant response rating, Rice (0 to 100 scale, 0 is no effect, 100 is complete control) [17]: 0 | Plant response rating, Sedge, Umbrella (0 to 100 scale, 0 is no effect, 100 is complete control) [18]: 0 | Plant response rating, Barnyardgrass (0 to 100 scale, 0 is no effect, 100 is complete control) [19]: 0 | Plant response rating, Ducksalad (0 to 100 scale, 0 is no effect, 100 is complete control) [20]: 0

CON=C(c1c(O)c(C)nn(C)c1=O)c1ccc(Cl)c2ccccc12 [Compound 40]
Blackgrass plant response rating (0 to 100 scale) [1]: 80 | Blackgrass plant response rating [1]: 70 | Galium plant response rating (0 to 100 scale) [2]: 100 | Galium plant response rating [2]: 70 | Ragweed plant response rating (0 to 100 scale) [3]: 80 | Ragweed plant response rating [3]: 70 | Kochia plant response rating (0 to 100 scale) [4]: 40 | Kochia plant response rating [4]: 10 | Barnyardgrass plant response rating (0 to 100 scale) [5]: 30 | Barnyardgrass plant response rating [5]: 30 | Wheat plant response rating (0 to 100 scale) [6]: 50 | Wheat plant response rating [6]: 20 | Ryegrass, Italian plant response rating (0 to 100 scale) [7]: 90 | Ryegrass, Italian plant response rating [7]: 50 | Pigweed plant response rating (0 to 100 scale) [8]: 40 | Pigweed plant response rating [8]: 10 | Corn plant response rating (0 to 100 scale) [9]: 10 | Corn plant response rating [9]: 0 | Foxtail, Giant plant response rating (0 to 100 scale) [10]: 50 | Foxtail, Giant plant response rating [10]: 10 | Ragweed plant response rating [11]: 40 | Ragweed plant response rating (0 to 100 scale) [11]: 80 | Kochia plant response rating [12]: 0 | Kochia plant response rating (0 to 100 scale) [12]: 10 | Barnyardgrass plant response rating [13]: 30 | Barnyardgrass plant response rating (0 to 100 scale) [13]: 60 | Ryegrass, Italian plant response rating [14]: 20 | Ryegrass, Italian plant response rating (0 to 100 scale) [14]: 60 | Pigweed plant response rating [15]: 30 | Pigweed plant response rating (0 to 100 scale) [15]: 60 | Foxtail, Giant plant response rating [16]: 50 | Foxtail, Giant plant response rating (0 to 100 scale) [16]: 90 | Plant response rating, Rice (0 to 100 scale, 0 is no effect, 100 is complete control) [17]: 0 | Plant response rating, Sedge, Umbrella (0 to 100 scale, 0 is no effect, 100 is complete control) [18]: 0 | Plant response rating, Barnyardgrass (0 to 100 scale, 0 is no effect, 100 is complete control) [19]: 0 | Plant response rating, Ducksalad (0 to 100 scale, 0 is no effect, 100 is complete control) [20]: 0

CO/N=C(\c1ccccc1C#N)c1c(O)c(C)nn(C)c1=O [Compound 76]
Blackgrass plant response rating (0 to 100 scale) [1]: 0 | Blackgrass plant response rating [1]: 0 | Galium plant response rating (0 to 100 scale) [2]: 70 | Galium plant response rating [2]: 40 | Ragweed plant response rating (0 to 100 scale) [3]: 60 | Ragweed plant response rating [3]: 10 | Kochia plant response rating (0 to 100 scale) [4]: 0 | Kochia plant response rating [4]: 0 | Barnyardgrass plant response rating (0 to 100 scale) [5]: 20 | Barnyardgrass plant response rating [5]: 20 | Wheat plant response rating (0 to 100 scale) [6]: 0 | Wheat plant response rating [6]: 0 | Ryegrass, Italian plant response rating (0 to 100 scale) [7]: 30 | Ryegrass, Italian plant response rating [7]: 20 | Pigweed plant response rating (0 to 100 scale) [8]: 70 | Pigweed plant response rating [8]: 40 | Corn plant response rating (0 to 100 scale) [9]: 0 | Corn plant response rating [9]: 0 | Foxtail, Giant plant response rating (0 to 100 scale) [10]: 0 | Foxtail, Giant plant response rating [10]: 0 | Ragweed plant response rating [11]: 0 | Ragweed plant response rating (0 to 100 scale) [11]: 0 | Kochia plant response rating [12]: 0 | Kochia plant response rating (0 to 100 scale) [12]: 0 | Barnyardgrass plant response rating [13]: 0 | Barnyardgrass plant response rating (0 to 100 scale) [13]: 0 | Ryegrass, Italian plant response rating [14]: 0 | Ryegrass, Italian plant response rating (0 to 100 scale) [14]: 0 | Pigweed plant response rating [15]: 0 | Pigweed plant response rating (0 to 100 scale) [15]: 10 | Foxtail, Giant plant response rating [16]: 0 | Foxtail, Giant plant response rating (0 to 100 scale) [16]: 0 | Plant response rating, Rice (0 to 100 scale, 0 is no effect, 100 is complete control) [17]: 0 | Plant response rating, Sedge, Umbrella (0 to 100 scale, 0 is no effect, 100 is complete control) [18]: 0 | Plant response rating, Barnyardgrass (0 to 100 scale, 0 is no effect, 100 is complete control) [19]: 0 | Plant response rating, Ducksalad (0 to 100 scale, 0 is no effect, 100 is complete control) [20]: 0
